According to patent US11925632B2, “Isoquinoline derivatives for use in treating GLUT1 deficiency syndrome” (GLIAPHARM SA, priority 2019, dated 2024):
pEC50: −log10 of the molar value. Entries after “also recorded” stand apart in the source; their conditions may differ.

Columns and labels:
[1] = tested on: primary mouse astrocytes; assay: Extracellular lactate quantification (lactate release from primary astrocytes); type: cell-based
Description: Primary cultures of cerebrocortical astrocytes were obtained from 1 to 2-day-old OF1 mouse pups (Charles River). Briefly, cortices were isolated and minced in small pieces under a dissecting microscope. The cells were incubated for 30 min at 37° C. in a solution containing 20 U/ml papain, 1 mM L-cysteine and 10 kU/ml DNase I. After dissociation, papain activity was stopped by the addition of fetal calf serum (FCS). Single-cell suspension was then obtained by mechanical dissociation, which consisted in cells trituration in a DMEM D7777 medium supplemented with 44 mm NaHCO3, 10 ml/L antibiotic/antimycotic solution and 10% FCS. The cells were seeded at an average density of ˜10′000 cells/cm^2 on poly-D-lysine coated 96- or 12-well culture plates, depending on their use, and grown in DMEM D7777 medium supplemented with 44 mm NaHCO3, 10 ml/L antibiotic/antimycotic solution and 10% FCS at 37° C. in a humidified atmosphere containing 5% CO2/95% air. Culture medium was renewed twice a week. Cells were stimulated and harvested between DIV14 and DIV17, when confluence and cell growth were optimal.
(§1) Secretion of L-lactate was measured in the extracellular medium of 96-well plated astrocytes after 90 min stimulation (at 37° C., in 5% CO2/95% air conditions) with Vehicle (DMSO), the compounds of the invention (100 nM to 100 μM) or positive control. […] Stimulation medium was composed of D5030 medium complemented with 5 mM D-glucose and 44 mM sodium bicarbonate, pH 7.2. To quantify lactate concentrations in the extracellular medium, 200 μl of a 0.2M Glycine-semicarbazide buffer (pH 10) containing 3 mM NAD and 14 U/ml LDH was added to each well of a 96-well plate containing 30 μl aliquots of extracellular medium. Samples were incubated at 37° C. for 1 h. Fluorescence intensity (340 nm excitation/450 nm emission), which represents the amount of NADH produced, was measured, and lactate concentration values were determined relative to a standard curve of L-lactate concentrations.
The release of lactate from primary mouse astrocytes treated with compound (1) at 10 μM was quantified by (FIG. 1). Accumulation of lactate in the extracellular medium was measured over a period of 1.5 h. […] Maximal effects of the compounds were 38.6% (1), 38% (2), 31% (4) and 76% (3) when compared to the effect of the positive control (100%) for compounds (1) to (4), respectively.

[2] = tested on: astrocytes transfected with scramble siRNA; assay: 2-deoxyglucose (2DG) uptake, scramble siRNA astrocytes; type: cell-based, mouse; conditions: 30 min treatment, 1 or 10 μM, vs vehicle
Description: Astrocytes grown on 12-well plates and transfected with either scramble siRNA or GLUT1 siRNA were used. 1 day after having replaced transfection medium (DIV13), 2DG uptake was measured after treatment for 30 min with Vehicle (0.1% DMSO) or with the compound of the invention (1) (concentrations of 1 or 10 μM). During treatment, 1 mM 2DG was added to the medium for assessment of 2DG uptake. At the end of the stimulation, medium was removed and replaced with 150 μl NaOH 0.1M, and stored at −20° C. After thawing, cells were collected using cell scraper and heated for 40 min at 85° C. Then, 150 ul HCl 0.1M and TAE buffer 200 mM was added to each condition. 20 μl were added to a transparent 96-well plate and 2DG was quantified by addition of a reaction solution containing 50 mM TAE, 50 mM KCl, 0.02% BSA, 0.1 mM NADP, 0.2 U/ml diaphorase, 2 mM resazurin and 20 U/ml glucose-6-phosphate dehydrogenase. Concentration of 2DG in samples were calculated by comparison with standard curve of deoxy-glucose-6-phosphate ranging from 0 to 1 nmoles.
(§2) Scramble and GLUT1 siRNA sequences were as following:
Cells were grown in transfection medium for 3 days at 37° C. in a humidified atmosphere containing 5% CO2/95% air. […]
2DG uptake after treatment with Veh or compound of the invention (1) was measured in astrocytes transfected with scramble siRNA or GLUT1 siRNA (FIG. 4A).

[3] = tested on: wild-type (WT) mice; assay: Cerebral extracellular lactate and glucose biosensors, wild-type littermates; type: in vivo, mouse; conditions: medial prefrontal cortex, 10 mg/kg and/or 100 mg/kg oral, AUC ratio vs vehicle
Description: (§3) Transgenic mice on 129/SvJ genetic background in which GLUT1 has been knocked-down (GLUT1-DS mice) were used (Wang et al., […], Human Molecular Genetics, 15(7)). Mating colonies were composed of wild-type female mice and GLUT1-DS male mice, or GLUT1-DS female mice and wild-type male mice. F1 pups were genotyped after ear punching at weaning using PCR to determine genotype. Mice of 2 to 3 months of age were used.
(§4) Cerebral extracellular levels of lactate and glucose were monitored in vivo in GLUT1-DS transgenic male mice and wild-type (WT) male littermates using lactate and glucose biosensors (Pinnacle Technology), according to the manufacturer's instructions. […] After surgery, mice were monitored closely and received analgesic treatment for at least 4 days. After mice had fully recovered from surgery, compounds of the invention of vehicle were administered per os as previously described and cerebral levels of extracellular lactate or glucose were dynamically recorded for 6 hours using lactate or glucose biosensors, respectively. […] Concentration of cerebral extracellular lactate or glucose was calculated from lactate or glucose probe electric signals, respectively, using post-calibration values, as described by manufacturer. […]

[4] = tested on: astrocytes transfected with GLUT1 siRNA; assay: Lactate secretion, GLUT1 siRNA astrocytes (cellular model of GLUT1-DS); type: cell-based, mouse; conditions: vs vehicle
Description: as §1, §2
Cells were grown in transfection medium for 3 days at 37° C. in a humidified atmosphere containing 5% CO2/95% air. After 3 days, transfection medium was replaced with DMEM D5030 supplemented with 44 mM NaHCO3 and 5 mM D-Glucose (1 ml per well).
Lactate secretion after treatment with Veh or compound of the invention (1) was measured in astrocytes transfected with scramble siRNA or GLUT1 siRNA (FIG. 4B).

[5] = tested on: GLUT1-DS mice; assay: Cerebral extracellular lactate and glucose biosensors, GLUT1-DS transgenic mice; type: in vivo, mouse; conditions: medial prefrontal cortex, 10 mg/kg and/or 100 mg/kg oral, AUC ratio vs vehicle
Description: as §3, §4

Structure (SMILES): COc1cc2ccnc(Nc3ccc(OC(F)(F)F)cc3)c2cc1OC [Example 1, 6,7-dimethoxy-N-(4-(trifluoromethoxy)phenyl)isoquinolin-1-amine]
- pEC50 ([1]; Astrocyte, 1.5 h, primary mouse astrocytes, 90 min stimulation, read-out: EC50 of astrocyte-mediated lactate secretion): 5.15
- Emax ([1]; Mus musculus, Astrocyte, 1.5 h, positive control CCCP 2 μM, 90 min, read-out: Maximal effect on lactate secretion compared to the effect of the positive control (100%)): 38.6%
- Concentration at which effect on lactate release is already significant ([1]; primary mouse astrocytes, 90 min): below 1 μM
- 2DG uptake [2]: significantly enhances 2DG uptake
- Extracellular glucose levels in the brain [3]: significantly increases
- Extracellular lactate levels in the brain [3]: significantly increases
- Lactate secretion [4]: restored; also recorded: significantly enhances lactate secretion
- Extracellular glucose levels in the brain [5]: significantly increases
- Extracellular lactate levels in the brain [5]: significantly increases
